Source: patent US7737155B2, “Nitrogen-containing heterocyclic compounds and methods of use thereof” (Schering Corporation, priority 2005, dated 2010)

Each compound was assayed against recombinant human nicotinic acid receptor (NAR) (Homo sapiens, UniProt Q8TDS4) (assay: Nicotinic Acid Receptor Assay: inhibition of forskolin-stimulated cAMP accumulation in CHO cells (MesoScale Discovery cAMP kit)). Details: CHO cells expressing recombinant human NAR; forskolin-stimulated cAMP; read-out: NA EC50 camp.
Format: cell-based
Summary of the method: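 Compounds were diluted in PBS containing 6 μM forskolin and incubated with cells for 30 min at room temperature. cAMP was quantified by the MesoScale kit against an on-plate standard curve.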

Chain of recombinant human nicotinic acid receptor (NAR) (Q8TDS4 whole entry): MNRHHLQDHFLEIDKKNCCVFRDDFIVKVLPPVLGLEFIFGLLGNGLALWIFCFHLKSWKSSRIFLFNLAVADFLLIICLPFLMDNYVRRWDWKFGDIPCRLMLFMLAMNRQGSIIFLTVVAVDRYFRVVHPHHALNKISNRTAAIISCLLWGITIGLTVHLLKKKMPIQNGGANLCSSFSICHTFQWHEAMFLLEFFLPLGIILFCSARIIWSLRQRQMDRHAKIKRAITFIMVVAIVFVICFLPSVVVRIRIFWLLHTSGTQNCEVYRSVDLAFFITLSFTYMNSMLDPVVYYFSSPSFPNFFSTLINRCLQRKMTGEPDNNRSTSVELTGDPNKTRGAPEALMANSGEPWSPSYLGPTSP

Compound | EC50 [nM]
CCc1cc(=O)oc2nc(OCc3ccccc3-c3cccc(CO)c3)[nH]c(=O)c12 [Compound 634] | 100 to 1000
CCc1cc(=O)oc2nc(O[C@H](C)C#CC(=O)OCc3ccccc3)[nH]c(=O)c12 [Compound 635] | > 1000
CCc1cc(=O)oc2nc(OCC#CCOC)[nH]c(=O)c12 [Compound 636] | 100 to 1000
CCc1cc(=O)oc2nc(OCC[Si](C)(C)C)[nH]c(=O)c12 [Compound 637] | 100 to 1000
CCC#CC(C)Oc1nc2oc(=O)cc(CC)c2c(=O)[nH]1 (stereo not drawn) [Compound 639] | 100 to 1000
CCc1cc(=O)oc2nc(OCc3cc(-c4ccccc4Cl)no3)[nH]c(=O)c12 [Compound 640] | 100 to 1000
CCc1cc(=O)oc2nc(OCC#CCN(C)C)[nH]c(=O)c12 [Compound 641] | 0.001 to 100
CCc1cc(=O)oc2nc(OCCCSC)[nH]c(=O)c12 [Compound 642] | 100 to 1000
CCc1cc(=O)oc2nc(OCCO)[nH]c(=O)c12 [Compound 643] | 100 to 1000
CCc1cc(=O)oc2nc(OCC#CC(C)O)[nH]c(=O)c12 (stereo not drawn) [Compound 644] | 0.001 to 100
CCc1cc(=O)oc2nc(OCc3cc4c(C)nn(C)c4s3)[nH]c(=O)c12 [Compound 646] | > 1000
CCc1cc(=O)oc2nc(OCc3c(-c4c(Cl)cccc4Cl)noc3C)[nH]c(=O)c12 [Compound 647] | 100 to 1000
CCc1cc(=O)oc2nc(OCc3ccc(-c4ccccn4)s3)[nH]c(=O)c12 [Compound 648] | 100 to 1000
CCc1cc(=O)oc2nc(OCc3cc(Br)no3)[nH]c(=O)c12 [Compound 649] | 100 to 1000
CCc1cc(=O)oc2nc(OCCCS(C)(=O)=O)[nH]c(=O)c12 [Compound 650] | 100 to 1000
CCc1cc(=O)oc2nc(OCc3ccccc3-c3ccc(CO[Si](C)(C)C(C)(C)C)cc3)[nH]c(=O)c12 [Compound 651] | 100 to 1000
CCc1cc(=O)oc2nc(OCCN(C)C)[nH]c(=O)c12 [Compound 652] | 0.001 to 100
CCc1cc(=O)oc2nc(OCc3ccnc(NC(=O)C(C)(C)C)c3)[nH]c(=O)c12 [Compound 653] | > 1000
CCc1cc(=O)oc2nc(OCc3cc4cc(C)ccc4s3)[nH]c(=O)c12 [Compound 654] | 0.001 to 100
CCc1cc(=O)oc2nc(OCCSc3ccccn3)[nH]c(=O)c12 [Compound 655] | 100 to 1000
CCc1cc(=O)oc2nc(OCc3cnco3)[nH]c(=O)c12 [Compound 657] | > 1000
CCc1cc(=O)oc2nc(OCc3ccncc3NC(=O)C(C)(C)C)[nH]c(=O)c12 [Compound 659] | > 1000

Compound | EC50 [nM]
CCCCc1cc(=O)oc2nc(OCCOC)[nH]c(=O)c12 [Compound 660] | > 1000
COCC#CCOc1nc2oc(=O)cc(Cc3ccc(F)cc3)c2c(=O)[nH]1 [Compound 661] | 100 to 1000
CCc1cc(=O)oc2nc(OCCOCc3csc4ccccc34)[nH]c(=O)c12 [Compound 662] | 0.001 to 100
CCc1cc(=O)oc2nc(OCC(C)(C)S(=O)(=O)c3ccc(Cl)cc3)[nH]c(=O)c12 [Compound 663] | > 1000
CCc1cc(=O)oc2nc(OCC#CCCOC)[nH]c(=O)c12 [Compound 664] | 100 to 1000
CCc1cc(=O)oc2nc(OCc3conc3C)[nH]c(=O)c12 [Compound 665] | > 1000
CCc1noc(C)c1COc1nc2oc(=O)cc(CC)c2c(=O)[nH]1 [Compound 666] | 0.001 to 100
CCc1cc(=O)oc2nc(OCc3cnoc3C)[nH]c(=O)c12 [Compound 668] | > 1000
CCc1cc(=O)oc2nc(OCC#CC(CC)OC)[nH]c(=O)c12 (stereo not drawn) [Compound 669] | 100 to 1000
CCCCc1cc(=O)oc2nc(OCC#CCOC)[nH]c(=O)c12 [Compound 670] | 0.001 to 100
CCc1cc(=O)oc2nc(OCC#CC(O)CC)[nH]c(=O)c12 (stereo not drawn) [Compound 671] | 0.001 to 100
CCc1cc(=O)oc2nc(OCC#CC(C)OC)[nH]c(=O)c12 (stereo not drawn) [Compound 672] | 100 to 1000
CCc1cc(=O)oc2nc(OCc3cc(C)nn3C(C)(C)C)[nH]c(=O)c12 [Compound 673] | 100 to 1000
CCc1cc(=O)oc2nc(OCc3cc(C)nn3CC)[nH]c(=O)c12 [Compound 678] | 100 to 1000
CCCCc1cc(=O)oc2nc(OCC#CC(O)CC)[nH]c(=O)c12 (stereo not drawn) [Compound 679] | 0.001 to 100
CCCCc1cc(=O)oc2nc(OCC#CC(C)O)[nH]c(=O)c12 (stereo not drawn) [Compound 680] | 0.001 to 100
CCCCc1cc(=O)oc2nc(OCc3cc[n+]([O-])cc3)[nH]c(=O)c12 [Compound 681] | > 1000
CCCCc1cc(=O)oc2nc(OCc3ccccn3)[nH]c(=O)c12 [Compound 682] | > 1000
CN(C)CCOc1nc2oc(=O)cc(Cc3cccc(F)c3)c2c(=O)[nH]1 [Compound 683] | > 1000
COCC#CCOc1nc2oc(=O)cc(Cc3cccc(F)c3)c2c(=O)[nH]1 [Compound 684] | 0.001 to 100
CCc1noc(C)c1COc1nc2oc(=O)cc(Cc3cccc(F)c3)c2c(=O)[nH]1 [Compound 685] | 100 to 1000
CCOc1nc2oc(=O)cc(CCC(C)C)c2c(=O)[nH]1 [Compound 686] | 100 to 1000

Compound | EC50 [nM]
CCOc1nc2oc(=O)cc(CCC3CCCC3)c2c(=O)[nH]1 [Compound 687] | 100 to 1000
CCc1noc(C)c1COc1nc2oc(=O)cc(CCC(C)C)c2c(=O)[nH]1 [Compound 688] | 100 to 1000
CCc1noc(C)c1COc1nc2oc(=O)cc(CCC3CCCC3)c2c(=O)[nH]1 [Compound 689] | 100 to 1000
Cc1cc(=O)oc2nc(OCc3csc4ccccc34)[nH]c(=O)c12 [Compound 690] | > 1000
CCOC(=O)NOc1nc2oc(=O)cc(CCC3CCC3)c2c(=O)[nH]1 [Compound 691] | 0.001 to 100
CCCCCCc1cc(=O)oc2nc(ONC(=O)OCC)[nH]c(=O)c12 [Compound 692] | 0.001 to 100
CCOC(=O)NOc1nc2oc(=O)cc(CCC3CCCC3)c2c(=O)[nH]1 [Compound 693] | 100 to 1000
CCOC(=O)NOc1nc2oc(=O)cc(CCC(C)C)c2c(=O)[nH]1 [Compound 694] | > 1000
CCCCCc1cc(=O)oc2nc(ONC(=O)OCC)[nH]c(=O)c12 [Compound 695] | 0.001 to 100
CCOC(=O)NOc1nc2oc(=O)cc(CCC3CC3)c2c(=O)[nH]1 [Compound 696] | 100 to 1000
O=c1[nH]c(=O)c2c(CCC3CCC3)c(-c3ccccc3)c(=O)oc2[nH]1 [Compound 699] | > 1000
O=c1[nH]c(=O)c2c(CCC3CCC3)c(-c3ccc(F)cc3)c(=O)oc2[nH]1 [Compound 700] | > 1000
O=c1[nH]c(=O)c2c(CCC3CCC3)c(-c3ccc(C(F)(F)F)cc3)c(=O)oc2[nH]1 [Compound 701] | > 1000
N#Cc1ccc(-c2c(CCC3CCC3)c3c(=O)[nH]c(=O)[nH]c3oc2=O)cc1 [Compound 702] | > 1000
CCOc1ccc(-c2c(CCC3CCC3)c3c(=O)[nH]c(=O)[nH]c3oc2=O)cc1 [Compound 703] | > 1000
CC(=O)Nc1ccc(-c2c(CCC3CCC3)c3c(=O)[nH]c(=O)[nH]c3oc2=O)cc1 [Compound 704] | > 1000
CCCCc1c(-c2ccc(Cl)cc2)c(=O)oc2[nH]c(=O)[nH]c(=O)c12 [Compound 705] | > 1000
CCCCc1c(-c2ccc(F)cc2)c(=O)oc2[nH]c(=O)[nH]c(=O)c12 [Compound 706] | > 1000
CCCCc1c(-c2cccc(OC)c2)c(=O)oc2[nH]c(=O)[nH]c(=O)c12 [Compound 707] | > 1000
CCCCc1c(-c2ccc(C(F)(F)F)cc2)c(=O)oc2[nH]c(=O)[nH]c(=O)c12 [Compound 708] | 100 to 1000
CCCCc1c(-c2ccc(C#N)cc2)c(=O)oc2[nH]c(=O)[nH]c(=O)c12 [Compound 709] | > 1000
CCCCc1c(-c2ccc(NC(C)=O)cc2)c(=O)oc2[nH]c(=O)[nH]c(=O)c12 [Compound 710] | > 1000

Same assay, conditions: NA EC50 camp (nM), CHO cells expressing recombinant human NAR; forskolin-stimulated cAMP

Compound | EC50 [nM]
CCc1cc(=O)oc2nc(OCC#CC3CCCCC3)[nH]c(=O)c12 [Compound 638] | 100 to 1000
CCc1cc(=O)oc2nc(OCC#CCCCO)[nH]c(=O)c12 [Compound 645] | 0.001 to 100
CCc1cc(=O)oc2nc(OCC#CCCO)[nH]c(=O)c12 [Compound 658] | 100 to 1000
CCc1noc(CC)c1COc1nc2oc(=O)cc(CC)c2c(=O)[nH]1 [Compound 667] | 100 to 1000

Same assay, conditions: NA EC50 camp, inhibition of forskolin-stimulated cAMP accumulation, CHO cells expressing recombinant human NAR

Compound | EC50 [nM]
CCCCc1cc(=O)oc2nc(OCC#CC3CC3)[nH]c(=O)c12 [Compound 735] | 94
O=c1cc(CCCC2CC2)c2c(=O)[nH]c(C(F)F)nc2o1 [Compound 740] | 130

Same assay, conditions: inhibition of forskolin-stimulated cAMP accumulation, CHO cells expressing recombinant human NAR; read-out: NA EC50 camp

Compound | EC50 [nM]
CCOC(=O)NOc1nc2oc(=O)cc(CCC3CCC3)c2c(=O)[nH]1 [Compound 691] | 47.5
CCC#CCOc1nc2oc(=O)cc(CCCC(C)C)c2c(=O)[nH]1 [Compound 715] | 671
CC#CCOc1nc2oc(=O)cc(CCCC3CC3)c2c(=O)[nH]1 [Compound 717] | 259
CCC#CC(C)Oc1nc2oc(=O)cc(CCCC3CC3)c2c(=O)[nH]1 (stereo not drawn) [Compound 718] | 162
CCCCC#CCOc1nc2oc(=O)cc(CCCC3CC3)c2c(=O)[nH]1 [Compound 719] | 152
CCCC#CCOc1nc2oc(=O)cc(CCC3CC3)c2c(=O)[nH]1 [Compound 721] | 226
O=c1cc(CCC2CC2)c2c(=O)[nH]c(OCC#CC3CC3)nc2o1 [Compound 722] | 111
CCc1cc(=O)oc2nc(OCC#CC(C)OC)[nH]c(=O)c12 (stereo not drawn) [Compound 723] | 296
CCc1cc(=O)oc2nc(OCC#CCCOC)[nH]c(=O)c12 [Compound 726] | 219
CCc1cc(=O)oc2nc(OCC#CC(C)O)[nH]c(=O)c12 (stereo not drawn) [Compound 729] | 49.9
CCC#CC(C)Oc1nc2oc(=O)cc(CC)c2c(=O)[nH]1 (stereo not drawn) [Compound 730] | 156
CCC#CCOc1nc2oc(=O)cc(CCCC)c2c(=O)[nH]1 [Compound 734] | 71.8
CCCCc1cc(=O)oc2nc(OCC#CC(O)CC)[nH]c(=O)c12 (stereo not drawn) [Compound 736] | 32.9
CCCCc1cc(=O)oc2nc(OCC#CC(C)O)[nH]c(=O)c12 (stereo not drawn) [Compound 737] | 59.5
O=c1cc(CCCC2CC2)c2c(=O)[nH]c(CF)nc2o1 [Compound 741] | 123
